Assay results as given in US20230095341A1, “COMPOSITIONS AND METHODS FOR TREATING NEURODEGENERATIVE, MYODEGENERATIVE, AND LYSOSOMAL STORAGE DISORDERS” (GEORGETOWN UNIVERSITY, priority 2020, published 2023).
Values joined by “and” are separate entries in the source; they are usually repeats but may differ in a detail not shown here. Equal values may be shown once. “Also recorded” adds a separate entry of the source.

Key:
[1] = system: B35 rat neuroblastoma cells; test: MTT assay, cell viability; assay type: cell-based; details: 5 hours, concentration given in the value
Method: (§1) Rat neuroblastoma B35 cells were grown in Dulbecco's Modified Eagle's Medium (DMEM) with 10% Fetal Bovine Serum (FBS) and 1% penicillin/streptomycin and incubated at 37° C. with 5% CO2. For the experiments, cells were transferred to 12-well plates (Cat. #150628, ThermoFisher, Waltham, Mass.) and grown to at least 70% confluence. Transient transfection was performed with 3pg P301L tau (Cat. #30145, Addgene) cDNA or 3pg human a-synuclein cDNA using Fugene HD transfection reagent (Cat. #E2311, Promega, Madison Wis.) for 24 hours. Cells were treated with ImM, I00pM, 10pM, IpM, 0.lIM, 0.01pMl, and 0.001pM dissolved in DMSO or an equivalent SuL of DMSO for 5 hours. Cell culture media was collected and cells were harvested using sodium-tris, EDTA, NP-40 (STEN) buffer and centrifuged at 10,000×g for 20 minutes at 4′C and supernatant was collected. Cell viability was determined via lactate dehydrogenase assay (Cat. #88954, Thermofisher) and MTT assay (Cat. #V13154, Thennofisher). Protein was extracted by removing culture medium and adding 0.2 ml lx STEN buffer (50 mM Tris (pH 7.6), 150 mM NaCl, 2 mM EDTA, 0.2% NP-40, 0.2% BSA, 20 mM PMSF and protease cocktail inhibitor) to cell layer and incubated on ice for 10 minutes. The bottom of the well was scraped and allowed to incubate on ice for an additional 10 minutes. Cell lysates were collected, stored at -80° C., and used for additional analyses.
(§2) Compound 1 (BK5018), Compound 2 (BK5026), Compound 3 (BK5029), Compound 4 (BD5040), Compound 6 (CL2-296). Compound 7 (CL-2-287-1) and Compound 8 (CL-2-287-2) with molecular weights of 284, 339.265, 264, 339, 269 and 247 gimol, respectively, were diluted in Dimethyl Sulfoxide (DMSO) to final concentrations of 100 pM, 10 µM, 1 pM, 0.1 pM, 0.01 pM, and 0.001 pM. Drugs were stored at −80° C.
To measure cell viability, cells were incubated with 500 pL of Dulbecco's Modified Eagle's Medium (DMEf) containing 50 pL of (3-[4,5-dimethylthiazol-2-yl]-2,5-diphenyl-tetrazolium bromide (ivT)) for 5 hours at 37° C. and 5% CO2. The media was aspirated so that 125 uL of media remained. The formazan salts were dissolved in 250 uL of DMSO. Absorbance was read against a blank containing 125 uL of media and MTT, and 250 uL of DMSO at 570 mn.

murine Tau = test: Tau ELISA of whole brain lysates from A53T mice; assay type: in vivo, mouse (A53T); details: 21 days, 12 month old A53T mice
[2] = system: B35 rat neuroblastoma cells; test: Lactate dehydrogenase (LDH) assay, cell toxicity; assay type: cell-based; details: 5 hours, concentration given in the value
Method: as §1, §2
Cellular cytotoxicity was quantitatively measured by assessment of LDH, a cytosolic enzyme that is released from damaged cells into the cellular media, after exposure to the drug 5 hours after initial dosage. The cell culture media was collected, and an aliquot was coupled with a lactate and NAD+. LDH catalyzes the reaction that converts lactate into pyruvate to produce NADH. NADH, in turn, reduces a tetrazolium salt (NT) into a red fornazan product. The amount of LDH in the media is proportional to the amount of formazan which was measured at 490 nn. The absorbance at 680 nm, to measure the background signal from the instrument, was subtracted from the absorbance at 490 nm to calculate the LDH activity. CelfCulture

[3] = system: alpha-synuclein in a-synuclein-transfected B35 rat neuroblastoma cells; test: Reduction of alpha-synuclein in a-synuclein-transfected B35 cells; assay type: cell-based, rat cells transfected with human a-synuclein cDNA; details: treatment for five hours with 100aM, lOuM and luM concentrations
Method: as §1
To perform transient transfection of a-synuclein into the rat neuroblastoma B35 cells FuGene@ HD Transfection Reagent (Promega Corporation, Madison, Wis.) was used. Cells were grown in 12-well dishes. A mixture containing 12 pg of cDNA, 540 pg of DMEM containing 2% FBS, and 60 pd of FuGene@ HD Transfection Reagent was incubated for 10 minutes. The cells were treated with 50 pl of the FuGeneC HD Transfection Reagent/DNA mixture for 24 hours. Cells were harvested after transfection, media was aspirated, the cells were treated with 200ul of Sodium Tris EDTA NP40 (STEN) lysis buffer then scraped off the plate and collected into a 1.5 ml centrifiuge tube.

[4] = system: Tauopathy rTG4510 mice expressing human P301L tau; test: Overnight nest shredding (nesting) behavior; assay type: in vivo, mouse; details: 10 mg/kg, 3 weeks, vs DMSO (Kruskal-Wallis P=0.01), rTG4510 mice
Method: Tauopathy rTG4510 mice (i.e., a mouse model that clinically manifest a tauopathy), expressing human P301L tau driven by a CAMrII promoter, approximately 9-12 months old, were treated intraperitoneally (I.P.) for 21 consecutive days, […], or Dimethyl sulfoxide (DMSO) (n=7).
Then, blinded, independent observers reviewed images of the overnight shredding and the average quality scores were calculated.
For nest shredding, Mann-Whitney analysis was used within groups, between timepoints, and Kruskal-Wallis analysis was used between treatment groups. For open-field studies, : ordinary one-way ANOVA or Student's I test was used. […]
Blinded independent observers reviewed images of the overnight shredding and the average quality scores were calculated.

[5] = 2.5 mg/kg, 5 mg/kg and 10 mg/kg I.P.

Row | Compound | cell toxicity, as measured by MTT assay [1] | murine Tau in whole brain lysates (murine Tau; 2.5 mg/kg and 10 mg/kg I.P.) | cell toxicity, as measured by LDH assay [2] | level of alpha-synuclein [3] | murine Tau in whole brain lysates (murine Tau; [5]) | nesting mean difference scores ([4]; listed as CL287-1) | nesting mean difference scores ([4]; listed as CL-287-1)
1 | COc1cccc(Nc2ccnc3cc(Cl)ccc23)c1 [BK5018, 7-Chloro-N-(3-methoxyphenyl)quinoin-4-amine] | no concentration of BK5018 displayed increased toxicity | significant reduction | 100aM and luM of BK5018 displayed increased levels of LDH and 100 uM and luM of BK5018 displayed increased toxicity |  |  |  | 
2 | Cc1cccc(Nc2cc(Nc3cccc(C)c3)c3ccccc3n2)c1 [BK5026, N^2,N^4-Di-m-tolyquinoline-2,4-diamine] | OOuM concentrations ofBK5026 displayed increased levels of cell toxicity |  | lOOuM and 1OuM concentrations of BK5026 displayed increased levels of cell toxicity and 100 uM |  |  |  | 
3 | COc1ccc2nccc(Oc3ccc(C)cc3)c2c1 [BK5029, 6-Methoxy-4-(p-tolyloxy)quinoUne] | low doses of BK5029 displayed increased toxicity |  | low doses of BK5029 displayed increased toxicity | none of the compounds significantly reduced the level of alpha-synuclein; also recorded: do not significantly reduce | significant reduction |  | 
4 | COc1ccc2nccc(Nc3cccc(C)c3)c2c1 [BK5030, 6-Methoxy-N-(m-toIyl)quinolin-4-amine] | no concentration of BK5030 displayed increased toxicity |  | no concentration of BK5030 displayed increased toxicity | none of the compounds significantly reduced the level of alpha-synuclein; also recorded: do not significantly reduce |  |  | 
5 | Cc1cccc(Nc2ccc3c(Nc4cccc(C)c4)nccc3c2)c1 [CL2-296, N^4,N^6—Di-m-tolylisoquinoline-1,6-diamine] | no concentration of CL2-296 displayed increased cell toxicity |  | 100 uM and IOuM concentrations of CL2-296 displayed decreased levels of LDH and no other concentration of CL2-296 displayed increased cell toxicity and 100luM and 10 uM concentrations of CL2-296 displayed decreased levels of LDH | none of the compounds significantly reduced the level of alpha-synuclein; also recorded: do not significantly reduce | significant reduction |  | 
6 | CC(C)(C)c1ccccc1Nc1ccccc1C(=O)O [CL-2-287-1, 2-((2-(tert-Buty)phenyl)amino)benzoic adid] | at 100lM or less did not show increased cell toxicity |  | at 100 uM or less did not show increased cell toxicity |  |  | significantly different | significantly improved nesting behavior
